In the NIST ThermoML archive (doi:10.1016/j.jct.2005.03.012):

Assay: excess molar enthalpy (molar enthalpy of mixing); xn = mol fraction of the nth substance listed
Conditions: Liquid

CO [methanol] + O
excess molar enthalpy [kcal/mol]
Conditions	8500 kPa	10000 kPa
510.71 K, x1 = 0.9	-0.0418	–
510.88 K, x1 = 0.5	–	0.0876
511.51 K, x1 = 0.1	–	0.0425
511.67 K, x1 = 0.6	–	0.0678
512.18 K, x1 = 0.7	–	0.0484
512.47 K, x1 = 0.5	–	0.0767
512.6 K, x1 = 0.4	–	0.0828
512.67 K, x1 = 0.8	–	0.0257
512.9 K, x1 = 0.3	–	0.0793
512.9 K, x1 = 0.9	–	0.00574
513.15 K, x1 = 0.1	0.011	0.0396
513.15 K, x1 = 0.2	0.00782	0.0663
513.15 K, x1 = 0.3	-0.012	0.0779
513.15 K, x1 = 0.4	-0.0294	0.0799
513.15 K, x1 = 0.5	-0.0556	0.0728
513.15 K, x1 = 0.6	-0.0928	0.0598
513.15 K, x1 = 0.7	-0.14	0.0408
513.15 K, x1 = 0.8	-0.164	0.0228
513.15 K, x1 = 0.9	-0.155	0.00569
513.61 K, x1 = 0.2	–	0.0641
513.87 K, x1 = 0.1	–	0.0385
513.88 K, x1 = 0.6	–	0.0498
514.32 K, x1 = 0.1	-0.00899	–
514.32 K, x1 = 0.2	-0.0402	–
514.32 K, x1 = 0.3	-0.0669	–
514.32 K, x1 = 0.4	-0.118	–
514.32 K, x1 = 0.5	-0.16	–
514.32 K, x1 = 0.6	-0.183	–
514.32 K, x1 = 0.7	-0.214	–
514.32 K, x1 = 0.8	-0.247	–
514.32 K, x1 = 0.9	-0.28	–
514.44 K, x1 = 0.9	–	-0.00217
514.48 K, x1 = 0.7	–	0.0282
514.52 K, x1 = 0.8	–	0.0107
514.98 K, x1 = 0.1	–	0.0354
514.98 K, x1 = 0.2	–	0.0587
514.98 K, x1 = 0.3	–	0.0676
514.98 K, x1 = 0.4	–	0.0676
514.98 K, x1 = 0.5	–	0.0582
514.98 K, x1 = 0.6	–	0.0411
514.98 K, x1 = 0.7	–	0.0222
514.98 K, x1 = 0.8	–	0.00755
514.98 K, x1 = 0.9	–	-0.00311
